This note sets out measurements from patent US12479847B2 (DANA-FARBER CANCER INSTITUTE, INC., priority 2019, dated 2025).

Where two headings read alike, the source gives them in different places.

What all share (assay): KINOMEscan (ScanMAX) kinase profiling
Holding throughout (format): binding

Assay [1] has as its target T1, panel of 468 kinases (Homo sapiens, UniProt P00533, G719C).
T1 construct: purchased KINOMEscan (ScanMAX) service
As to conditions: EGFR(G719C); 1 μM; read-out: % control.

Assay [2] deals with T2, panel of 468 kinases (Homo sapiens, UniProt Q8IWQ3).
T2 construct: purchased KINOMEscan (ScanMAX) service
T2 sequence (Q8IWQ3 1-736): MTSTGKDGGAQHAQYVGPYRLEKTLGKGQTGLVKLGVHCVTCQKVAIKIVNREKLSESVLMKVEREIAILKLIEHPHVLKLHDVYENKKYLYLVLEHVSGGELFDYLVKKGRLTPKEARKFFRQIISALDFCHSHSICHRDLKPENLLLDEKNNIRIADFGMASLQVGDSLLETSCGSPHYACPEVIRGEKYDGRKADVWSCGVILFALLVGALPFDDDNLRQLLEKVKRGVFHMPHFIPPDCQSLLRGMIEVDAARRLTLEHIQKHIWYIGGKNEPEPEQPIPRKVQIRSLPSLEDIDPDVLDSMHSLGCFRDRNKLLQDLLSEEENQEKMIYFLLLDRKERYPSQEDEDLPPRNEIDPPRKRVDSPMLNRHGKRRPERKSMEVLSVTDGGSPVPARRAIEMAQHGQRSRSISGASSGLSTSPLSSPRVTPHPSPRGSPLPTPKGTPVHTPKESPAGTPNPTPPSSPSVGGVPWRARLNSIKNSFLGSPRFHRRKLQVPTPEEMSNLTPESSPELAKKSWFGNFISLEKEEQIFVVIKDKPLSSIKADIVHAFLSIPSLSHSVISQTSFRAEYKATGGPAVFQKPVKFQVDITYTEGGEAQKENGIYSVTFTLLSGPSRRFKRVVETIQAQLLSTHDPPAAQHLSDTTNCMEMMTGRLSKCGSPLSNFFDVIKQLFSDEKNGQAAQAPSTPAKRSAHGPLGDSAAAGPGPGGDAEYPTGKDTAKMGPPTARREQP
Particulars: BRSK2; 1 μM; read-out: % control.

In assay [3] the target is T3, panel of 468 kinases (Homo sapiens, UniProt Q9BXA7).
T3 construct: purchased KINOMEscan (ScanMAX) service
T3 sequence (Q9BXA7 1-367): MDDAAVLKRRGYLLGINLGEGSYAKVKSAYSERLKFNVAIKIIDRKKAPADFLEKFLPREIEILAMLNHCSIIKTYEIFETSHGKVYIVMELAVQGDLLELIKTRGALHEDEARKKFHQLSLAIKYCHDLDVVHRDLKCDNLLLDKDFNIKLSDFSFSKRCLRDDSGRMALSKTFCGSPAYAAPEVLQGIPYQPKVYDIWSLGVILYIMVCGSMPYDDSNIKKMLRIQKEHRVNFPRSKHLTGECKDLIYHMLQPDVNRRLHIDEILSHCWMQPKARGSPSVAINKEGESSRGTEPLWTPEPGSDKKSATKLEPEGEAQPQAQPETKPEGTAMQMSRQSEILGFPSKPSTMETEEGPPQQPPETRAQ
Particulars: TSSK1B; 1 μM; read-out: % control.

Assay [4] addresses T4, panel of 468 kinases (Homo sapiens, UniProt P23458).
T4 construct: purchased KINOMEscan (ScanMAX) service
Particulars: 1 μM, read-out: % control.

The target of assay [5] is T5, panel of 468 kinases (Homo sapiens, UniProt Q7L7X3).
T5 construct: purchased KINOMEscan (ScanMAX) service
T5 sequence (Q7L7X3 1-1001): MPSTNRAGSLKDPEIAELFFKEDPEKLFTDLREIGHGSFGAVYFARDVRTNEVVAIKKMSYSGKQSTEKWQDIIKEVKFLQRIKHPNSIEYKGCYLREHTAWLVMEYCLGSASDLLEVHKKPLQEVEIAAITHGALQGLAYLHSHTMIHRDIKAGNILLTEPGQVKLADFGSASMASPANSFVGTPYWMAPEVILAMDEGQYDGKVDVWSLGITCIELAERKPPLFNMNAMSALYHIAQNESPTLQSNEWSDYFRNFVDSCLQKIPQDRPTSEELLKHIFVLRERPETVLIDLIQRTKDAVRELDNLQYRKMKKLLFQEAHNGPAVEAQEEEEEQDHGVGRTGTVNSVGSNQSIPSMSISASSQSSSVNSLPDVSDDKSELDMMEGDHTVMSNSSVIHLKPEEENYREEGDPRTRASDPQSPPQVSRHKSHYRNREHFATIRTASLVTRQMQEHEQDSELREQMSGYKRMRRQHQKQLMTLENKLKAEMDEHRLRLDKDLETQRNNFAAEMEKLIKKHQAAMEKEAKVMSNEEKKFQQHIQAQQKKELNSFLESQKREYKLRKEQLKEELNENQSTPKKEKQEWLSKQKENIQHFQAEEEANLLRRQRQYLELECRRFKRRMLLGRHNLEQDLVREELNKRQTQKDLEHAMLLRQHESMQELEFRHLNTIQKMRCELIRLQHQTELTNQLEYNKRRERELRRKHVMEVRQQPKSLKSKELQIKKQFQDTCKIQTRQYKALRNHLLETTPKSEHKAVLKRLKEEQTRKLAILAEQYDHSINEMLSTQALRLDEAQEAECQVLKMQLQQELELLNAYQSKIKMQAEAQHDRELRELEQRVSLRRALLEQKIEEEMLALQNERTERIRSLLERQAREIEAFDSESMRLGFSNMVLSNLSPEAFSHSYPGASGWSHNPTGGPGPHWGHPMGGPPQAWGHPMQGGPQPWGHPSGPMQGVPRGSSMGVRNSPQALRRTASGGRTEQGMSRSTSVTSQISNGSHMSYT
As to conditions: TAOK1; 1 μM; read-out: % control.

T4 sequence (P23458 whole entry): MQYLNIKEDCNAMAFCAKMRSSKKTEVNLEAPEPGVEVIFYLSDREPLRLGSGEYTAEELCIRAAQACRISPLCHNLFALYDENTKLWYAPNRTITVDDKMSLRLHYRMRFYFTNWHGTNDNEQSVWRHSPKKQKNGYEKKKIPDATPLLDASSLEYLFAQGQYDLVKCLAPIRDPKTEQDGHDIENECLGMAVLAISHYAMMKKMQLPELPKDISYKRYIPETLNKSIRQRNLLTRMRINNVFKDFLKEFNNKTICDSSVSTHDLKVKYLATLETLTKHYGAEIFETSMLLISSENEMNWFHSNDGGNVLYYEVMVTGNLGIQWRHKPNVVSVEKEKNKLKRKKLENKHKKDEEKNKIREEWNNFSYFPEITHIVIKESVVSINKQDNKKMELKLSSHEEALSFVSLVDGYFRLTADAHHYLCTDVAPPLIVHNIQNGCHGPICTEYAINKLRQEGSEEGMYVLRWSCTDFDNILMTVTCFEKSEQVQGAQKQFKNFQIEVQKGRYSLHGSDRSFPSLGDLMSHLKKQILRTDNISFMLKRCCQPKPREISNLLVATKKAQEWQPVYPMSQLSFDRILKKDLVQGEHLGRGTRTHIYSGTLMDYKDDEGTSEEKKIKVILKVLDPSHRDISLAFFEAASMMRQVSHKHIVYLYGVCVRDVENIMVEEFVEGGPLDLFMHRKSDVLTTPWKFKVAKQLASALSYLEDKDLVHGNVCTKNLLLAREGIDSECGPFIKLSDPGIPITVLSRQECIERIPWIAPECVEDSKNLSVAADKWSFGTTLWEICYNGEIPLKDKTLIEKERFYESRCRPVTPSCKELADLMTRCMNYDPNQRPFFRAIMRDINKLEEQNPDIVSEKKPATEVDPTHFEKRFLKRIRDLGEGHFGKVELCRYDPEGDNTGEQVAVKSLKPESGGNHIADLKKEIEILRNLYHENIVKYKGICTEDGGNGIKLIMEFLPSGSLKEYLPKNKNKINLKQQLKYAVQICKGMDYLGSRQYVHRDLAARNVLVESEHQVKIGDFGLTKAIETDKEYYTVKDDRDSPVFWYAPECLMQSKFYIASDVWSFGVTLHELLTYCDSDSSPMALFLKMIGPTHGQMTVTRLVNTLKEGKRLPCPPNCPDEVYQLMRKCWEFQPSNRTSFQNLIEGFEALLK
T1 sequence (P00533 25-1210 G719C): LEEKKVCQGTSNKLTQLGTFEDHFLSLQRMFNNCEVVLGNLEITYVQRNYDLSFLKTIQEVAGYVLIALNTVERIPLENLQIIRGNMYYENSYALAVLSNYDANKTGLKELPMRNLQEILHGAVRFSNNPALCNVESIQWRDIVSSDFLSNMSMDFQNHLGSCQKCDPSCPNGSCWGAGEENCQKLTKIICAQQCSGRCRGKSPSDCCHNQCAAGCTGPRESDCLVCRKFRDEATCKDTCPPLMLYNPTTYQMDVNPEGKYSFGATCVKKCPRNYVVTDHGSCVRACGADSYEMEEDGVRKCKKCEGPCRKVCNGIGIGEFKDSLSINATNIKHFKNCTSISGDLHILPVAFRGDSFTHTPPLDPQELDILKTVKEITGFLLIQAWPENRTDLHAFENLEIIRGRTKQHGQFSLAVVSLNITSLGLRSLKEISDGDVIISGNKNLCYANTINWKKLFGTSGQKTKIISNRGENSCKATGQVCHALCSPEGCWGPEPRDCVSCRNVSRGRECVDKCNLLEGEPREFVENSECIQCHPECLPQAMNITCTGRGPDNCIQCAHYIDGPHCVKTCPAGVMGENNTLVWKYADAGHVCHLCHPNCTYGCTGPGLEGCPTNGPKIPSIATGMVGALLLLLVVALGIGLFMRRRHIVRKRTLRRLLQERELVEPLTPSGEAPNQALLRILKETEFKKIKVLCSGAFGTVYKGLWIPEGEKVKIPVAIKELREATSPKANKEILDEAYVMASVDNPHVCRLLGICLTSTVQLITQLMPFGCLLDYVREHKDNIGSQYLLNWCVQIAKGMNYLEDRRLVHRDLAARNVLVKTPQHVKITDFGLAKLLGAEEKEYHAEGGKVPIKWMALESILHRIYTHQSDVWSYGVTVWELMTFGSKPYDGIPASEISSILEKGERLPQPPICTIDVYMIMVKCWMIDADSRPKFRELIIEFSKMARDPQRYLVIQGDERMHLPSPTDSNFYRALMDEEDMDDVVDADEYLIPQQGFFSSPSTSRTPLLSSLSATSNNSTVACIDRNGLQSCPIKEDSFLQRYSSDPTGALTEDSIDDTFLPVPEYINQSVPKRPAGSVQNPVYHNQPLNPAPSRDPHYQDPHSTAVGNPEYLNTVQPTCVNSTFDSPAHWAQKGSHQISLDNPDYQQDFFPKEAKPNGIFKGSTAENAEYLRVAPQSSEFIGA

In the case of `CNc1nc(Nc2ccc(S(=O)(=O)N3CCC(N4CCOCC4)CC3)cc2OC)nc2[nH]cc(Cl)c12` [Compound 12, 5-chloro-N2-(2-methoxy-4-((4-morpholinopiperidin-1-yl)sulfonyl)phenyl)-N4-methyl-7H-pyrrolo[2,3-d]pyrimidine-2,4-diamine], the remaining binding at 1 µM is 97% at panel of 468 kinases [1]; 87% at panel of 468 kinases [2]; 72% at panel of 468 kinases [3]; 100% at panel of 468 kinases [4] (JAK1(JH1domain-catalytic)); 73% at panel of 468 kinases [4] (JAK1(JH2domain-pseudokinase)); 81% on panel of 468 kinases [5].
Consider `CNc1nc(Nc2ccc(C(=O)N3CCC(N4CCOCC4)CC3)c3c2OCO3)nc2[nH]cc(Cl)c12` [Compound 75, (7-((5-chloro-4-(methylamino)-7H-pyrrolo[2,3-d]pyrimidin-2-yl)amino)benzo[d][1,3]dioxol-4-yl)(4-morpholinopiperidin-1-yl)methanone], for which the remaining binding at 1 µM came out at 100% on panel of 468 kinases [1]; 83% on panel of 468 kinases [2]; 49% at panel of 468 kinases [3]; 100% on panel of 468 kinases [4] (JAK1(JH1domain-catalytic)); 64% on panel of 468 kinases [4] (JAK1(JH2domain-pseudokinase)); 81% on panel of 468 kinases [5].
For `CNc1nc(Nc2ccc(P3(=O)CCN(C4CCOCC4)CC3)cc2OC)nc2[nH]cc(Cl)c12` [Compound 77, 4-(4-((5-chloro-4-(methylamino)-7H-pyrrolo[2,3-d]pyrimidin-2-yl)amino)-3-methoxyphenyl)-1-(tetrahydro-2H-pyran-4-yl)-1,4-azaphosphinane 4-oxide], the remaining binding at 1 µM at panel of 468 kinases [1] was 99%; on panel of 468 kinases [2], 96%; on panel of 468 kinases [3], 33%; on panel of 468 kinases [4] (JAK1(JH1domain-catalytic)), 100%; on panel of 468 kinases [4] (JAK1(JH2domain-pseudokinase)), 34%; on panel of 468 kinases [5], 82%.
